Measurements from patent publication US20230399312A1, “SUBSTITUTED PYRIMIDINES AND METHODS OF USE” (THERAVANCE BIOPHARMA R&D IP, LLC, priority 2020, published 2023).
pKi: −log10 of the molar value.

Legend:
[1] = system: TGF-β-stimulated SMAD3 phosphorylation in BEAS-2B cells; experiment: Cellular ALK5 potency assay, inhibition of TGF-β stimulated pSMAD3 formation in BEAS-2B cells; format: cell-based; conditions: Homo sapiens, pSMAD3, TGF-β 10 ng/mL, read-out: BEAS2B pIC50 (converted)
Outline: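 Human lung epithelial BEAS-2B cells were pre-treated with compound for 1 h at 37 °C, then stimulated with TGF-β (final 10 ng/mL) for 30 min before lysis. pSMAD3 was quantified by AlphaLISA and pIC50 derived from dose-dependent signal change versus TGF-β-stimulated untreated cells.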

[2] = molecular target: T1, recombinant human ALK5 (TGF-βR1) protein (Homo sapiens, UniProt P36897); experiment: Biochemical ALK5 (TGF-βR1) assay to measure pKi (LANCE Ultra ULight kinase assay); conditions: apparent pKi, converted from pIC50 by Cheng-Prusoff
T1 construct: purchased Life Technologies PR9075A
T1 sequence (P36897 34-503): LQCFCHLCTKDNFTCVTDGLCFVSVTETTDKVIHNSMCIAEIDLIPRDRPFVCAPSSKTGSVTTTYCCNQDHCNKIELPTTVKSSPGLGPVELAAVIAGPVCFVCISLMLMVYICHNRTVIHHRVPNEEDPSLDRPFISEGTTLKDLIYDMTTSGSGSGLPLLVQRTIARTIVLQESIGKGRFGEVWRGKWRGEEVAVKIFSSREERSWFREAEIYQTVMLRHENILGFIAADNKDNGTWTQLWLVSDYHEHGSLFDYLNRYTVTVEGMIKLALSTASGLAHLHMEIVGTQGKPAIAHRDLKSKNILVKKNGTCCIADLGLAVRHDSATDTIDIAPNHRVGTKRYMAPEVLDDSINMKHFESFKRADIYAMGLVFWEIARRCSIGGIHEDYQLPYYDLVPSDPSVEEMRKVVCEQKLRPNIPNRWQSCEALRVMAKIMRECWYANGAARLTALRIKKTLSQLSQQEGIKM
Outline: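 Dose-response series of each compound were preincubated with the kinase for 60 minutes at room temperature. Phosphorylation proceeded for 60 minutes at 37 °C after ATP addition, was quenched with EDTA, and was detected with a europium anti-phospho-Thr1342 antibody by TR-FRET; pKi was calculated from pIC50.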

`Cc1cccc(-c2nc(Nc3ccnc(Nc4ccc(NC(=O)C5CCCNC5)cc4)n3)c3cccn3n2)n1` (stereo not shown) [Compound 1032, N-[4-[[4-[[2-(6-methyl-2-pyridyl)pyrrolo[2,1-f][1,2,4]triazin-4-yl]amino]pyrimidin-2-yl]amino]phenyl]piperidine-3-carboxamide] showed an IC50 [1] of 25.1 to 158 nM and a pKi [2] of 9.50 to 10.40.
In the case of `Cc1cccc(-c2nc(Nc3ccnc(Nc4ccc(C(=O)N5CCC6(CC5)CNC6)cc4)n3)c3cccn3n2)n1` [Compound 1033, 2,7-diazaspiro[3.5]nonan-7-yl-[4-[[4-[[2-(6-methyl-2-pyridyl)pyrrolo[2,1-f][1,2,4]triazin-4-yl]amino]pyrimidin-2-yl]amino]phenyl]methanone], the IC50 [1] was 25.1 to 158 nM and the pKi [2] was 9.50 to 10.40.
With `Cc1cccc(-c2nc(Nc3ccnc(Nc4ccc(C(=O)NC5CNC5)cc4)n3)c3cccn3n2)n1` [Compound 1034, N-(azetidin-3-yl)-4-[[4-[[2-(6-methyl-2-pyridyl)pyrrolo[2,1-f][1,2,4]triazin-4-yl]amino]pyrimidin-2-yl]amino]benzamide] the IC50 [1] was 25.1 to 158 nM and the pKi [2] was 9.50 to 10.40.
`Cc1cccc(-c2nc(Nc3ccnc(Nc4ccc(C(=O)NCC5CNC5)cc4)n3)c3cccn3n2)n1` [Compound 1035, N-(azetidin-3-ylmethyl)-4-[[4-[[2-(6-methyl-2-pyridyl)pyrrolo[2,1-f][1,2,4]triazin-4-yl]amino]pyrimidin-2-yl]amino]benzamide] showed an IC50 [1] of 25.1 to 158 nM and a pKi [2] of 9.50 to 10.40.
`Cc1cccc(-c2nc(Nc3ccnc(Nc4ccc(C(=O)NC5CCNC5)cc4)n3)c3cccn3n2)n1` (stereo not shown) [Compound 1036, 4-[[4-[[2-(6-methyl-2-pyridyl)pyrrolo[2,1-f][1,2,4]triazin-4-yl]amino]pyrimidin-2-yl]amino]-N-pyrrolidin-3-yl-benzamide] showed an IC50 [1] of 25.1 to 158 nM and a pKi [2] of 9.50 to 10.40.
Compound `Cc1cccc(-c2nc(Nc3ccnc(Nc4ccc(C(=O)NC5CCNCC5)cc4)n3)c3cccn3n2)n1` [Compound 1037, 4-[[4-[[2-(6-methyl-2-pyridyl)pyrrolo[2,1-f][1,2,4]triazin-4-yl]amino]pyrimidin-2-yl]amino]-N-(4-piperidyl)benzamide] has an IC50 [1] of 25.1 to 158 nM and a pKi [2] of 9.50 to 10.40.
For `Cc1cccc(-c2nc(Nc3ccnc(Nc4ccc(C(=O)N5CCNCC5)cc4)n3)c3cccn3n2)n1` [Compound 1038, [4-[[4-[[2-(6-methyl-2-pyridyl)pyrrolo[2,1-f][1,2,4]triazin-4-yl]amino]pyrimidin-2-yl]amino]phenyl]-piperazin-1-yl-methanone], the IC50 [1] was 25.1 to 158 nM and the pKi [2] was 9.50 to 10.40.
`Cc1cccc(-c2nc(Nc3ccnc(Nc4ccc(C(=O)OCC5CNC5)cc4)n3)c3cccn3n2)n1` [Compound 1039, azetidin-3-ylmethyl 4-[[4-[[2-(6-methyl-2-pyridyl)pyrrolo[2,1-f][1,2,4]triazin-4-yl]amino]pyrimidin-2-yl]amino]benzoate] showed an IC50 [1] of 25.1 to 158 nM and a pKi [2] of 9.50 to 10.40.
For `Cc1cccc(-c2nc(Nc3ccnc(Nc4ccc(NC5CNC5)cc4)n3)c3cccn3n2)n1` [Compound 1040, N2-[4-(azetidin-3-ylamino)phenyl]-N4-[2-(6-methyl-2-pyridyl)pyrrolo[2,1-f][1,2,4]triazin-4-yl]pyrimidine-2,4-diamine], the IC50 [1] was 25.1 to 158 nM and the pKi [2] was 9.50 to 10.40.
`Cc1cccc(-c2nc(Nc3ccnc(Nc4ccc(NC5CCNC5)cc4)n3)c3cccn3n2)n1` (stereo not shown) [Compound 1041, N4-[2-(6-methyl-2-pyridyl)pyrrolo[2,1-f][1,2,4]triazin-4-yl]-N2-[4-(pyrrolidin-3-ylamino)phenyl]pyrimidine-2,4-diamine] gave an IC50 [1] of 25.1 to 158 nM and a pKi [2] of 9.50 to 10.40.
In the case of `Cc1cccc(-c2nc(Nc3ccnc(Nc4ccc(NC5CCNCC5)cc4)n3)c3cccn3n2)n1` [Compound 1042, N4-[2-(6-methyl-2-pyridyl)pyrrolo[2,1-f][1,2,4]triazin-4-yl]-N2-[4-(4-piperidylamino)phenyl] pyrimidine-2,4-diamine], the IC50 [1] was 25.1 to 158 nM and the pKi [2] was 9.50 to 10.40.
